From the supplement of paper PMC10307832

Assays:
Assay in all cases: relative viability (nuclei count vs DMSO), 5 days (fraction); higher = more cells survive
[1] = compound: Cc1cnc(CNC(=O)c2c(=O)c3ccc(N4CCCN(C)CC4)nc3n3c2sc2ccccc23)cn1 [CX-5461] + O=C(c1cc(Cc2n[nH]c(=O)c3ccccc23)ccc1F)N1CCN(C(=O)C2CC2)CC1 [Olaparib] (partner 8 µM)
Outline: (§1)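 After 5 days of treatment, lung cancer cells in 1536-well plates were fixed and stained in a single step (final 0.05% Triton X-100, 1% formaldehyde, 1 ug/ml Hoechst) and their nuclei counted on 4× images. Treatment had been applied by pin tool the day after seeding as one drug alone or as a fixed anchor-drug dose with five library-drug doses (not always all listed) in √10 steps. Relative viability is the nuclei count of treated wells divided by that of vehicle wells, and values are medians of duplicate plates.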

[2] = compound: Cc1cnc(CNC(=O)c2c(=O)c3ccc(N4CCCN(C)CC4)nc3n3c2sc2ccccc23)cn1 [CX-5461] + Cc1nc(NC(=O)N2CCC[C@H]2C(N)=O)sc1-c1ccnc(C(C)(C)C(F)(F)F)c1 [Alpelisib] (partner 2 µM)
Outline: as §1

[3] = compound: O=C(Nc1cc(C(F)(F)F)cc(C(F)(F)F)c1)c1cc(Cl)ccc1O [IMD-0354] + CC(C)C[C@H](NC(=O)[C@H](Cc1ccccc1)NC(=O)c1cnccn1)B(O)O [Bortezomib] (partner 0.002 µM)
Outline: as §1

[4] = compound: O=C(Nc1cc(C(F)(F)F)cc(C(F)(F)F)c1)c1cc(Cl)ccc1O [IMD-0354] + C[C@]1(O)C[C@@H](c2nc(-c3ccc4ccc(-c5ccccc5)nc4c3)c3c(N)nccn32)C1 [Linsitinib] (partner 1 µM)
Outline: as §1

Cell Line | relative viability ([1]; first compound 0.01 µM) | relative viability ([1]; first compound 0.03162 µM) | relative viability ([1]; first compound 0.1 µM) | relative viability ([1]; first compound 0.3162 µM) | relative viability ([1]; first compound 1 µM) | relative viability ([2]; first compound 0.03162 µM) | relative viability ([2]; first compound 0.3162 µM) | relative viability ([2]; first compound 1 µM) | relative viability ([3]; first compound 0.04 µM) | relative viability ([3]; first compound 0.1265 µM) | relative viability ([3]; first compound 0.4 µM) | relative viability ([3]; first compound 1.265 µM) | relative viability ([3]; first compound 4 µM) | relative viability ([4]; first compound 0.04 µM) | relative viability ([4]; first compound 0.1265 µM) | relative viability ([4]; first compound 0.4 µM) | relative viability ([4]; first compound 1.265 µM) | relative viability ([4]; first compound 4 µM) | relative viability ([2]; first compound 0.01 µM) | relative viability ([2]; first compound 0.1 µM)
NCI-H1651 | 0.188 | 0.175 | 0.191 | 0.163 | 0.159 | 0.79 | 0.665 | 0.115 | 0.828 | 0.968 | 0.404 | 0.516 | 0.153 | 1.03 | 0.901 | 0.429 | 0.0622 | 0.0566 |  | 
HARA | 0.82 | 0.67 | 0.793 | 0.876 | 0.556 | 0.84 | 0.73 | 0.799 | 0.948 | 1.13 | 0.543 | 0.122 | 0.213 | 1.08 | 0.867 | 0.577 | 0.119 | 0.136 | 0.926 | 0.865
NCI-H1650 | 0.718 | 0.819 | 0.642 | 0.756 | 0.257 |  |  |  | 0.205 | 0.196 | 0.189 | 0.166 | 0.197 |  |  |  |  |  |  | 
NCI-H1793 | 1.09 | 1 | 0.879 | 0.937 | 0.792 | 0.668 | 0.71 | 0.726 |  |  |  |  |  | 1.15 | 0.802 | 0.349 | 0.298 | 0.224 | 0.769 | 0.772
SK-LU-1 | 0.423 | 0.467 | 0.442 | 0.473 | 0.335 | 1.35 | 0.945 | 0.332 | 1.17 | 1.1 | 0.645 | 0.418 | 0.304 | 1.41 | 0.863 | 0.621 | 0.24 | 0.264 | 1.08 | 0.724
